Measured values reported in patent EP1171107B1, “USE OF A PHARMACEUTICAL COMPOSITION IN THE MANUFACTURE OF A MEDICAMENT FOR THE TREATMENT OF PATHOLOGICAL CONDITIONS OF THE EYE CAUSED BY BACTERIA, VIRUSES, FUNGI, YEASTS AND PROTOZOA” (Dr. GERHARD MANN chem.-pharm. Fabrik GmbH, priority 1999, dated 2000).
Counter-ions that a name gives are not always drawn.

Experiments:
Format in all cases: cell-based
P.aeruginosa [1] = assay: Qualitative examination: enrichment of the inoculated test preparation in broth
How it was run: (§1)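 Test preparations (5 ml) inoculated with ~10^5 CFU/ml; after 2, 6, 8, 24, 32, 48 and 72 h, centrifuged, washed and resuspended in NaCl-peptone buffer. 2 ml enriched in 20 ml Caso broth (Fildes medium for H. influenzae), incubated up to 4 days at 33±2°C; negative enrichment indicates elimination of inoculum.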

P.aeruginosa [2] = assay: Quantitative germ count (re-isolation, surface method) after inoculating the test preparation; details: Ausgangskeimzahl 2,7 x 10^5 KBE/ml
How it was run: (§2)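 Test preparations were contaminated with ca. 10^5 CFU/ml of each strain, then sampled at 2, 6, 8, 24, 32, 48 and 72 h. Cells were centrifuged 10 min at 3000 rpm, washed in NaCl-peptone buffer, resuspended and spiral-plated on Caso agar at 33±2°C for max. 4 days. Detection limit was 100 CFU/ml.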

S.epidermidis [3] = assay: as above; details: Ausgangskeimzahl 2,1 x 10^5 KBE/ml
How it was run: as §2

E.coli [4] = assay: as above; details: Ausgangskeimzahl 2,7 x 10^5 KBE/ml
H.influenzae = assay: as above; details: Ausgangskeimzahl 2,8 x 10^5 KBE/ml
How it was run: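 Surviving germs were counted by the surface method: an aliquot was spiral-plated on Kochblut-Agar and incubated at 33±2°C for max. 4 Tage, giving re-isolated counts in KBE/ml with a detection limit of 100 KBE/ml. Initial germ counts were also set by spiral-plater surface plating. The H. influenzae strain was pretested biochemically for identity and purity.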

S.aureus [5] = assay: as above; details: Ausgangskeimzahl 2,6 x 10^5 KBE/ml
How it was run: as §2

Sc. pneumoniae [6] = assay: as above; details: Ausgangskeimzahl 3,7 x 10^5 KBE/ml
How it was run: as §2

E.coli [7] = assay: Qualitative examination: enrichment of the inoculated test preparation in broth
How it was run: as §1

S.epidermidis [8] = assay: as above
How it was run: as §1

S.aureus [9] = assay: as above
How it was run: as §1

Sc. pneumoniae [10] = assay: as above
How it was run: as §1

## O=C(O)c1cn(C2CC2)c2cc(N3CCNCC3)c(F)cc2c1=O [Ciprofloxacin HCl 0,35 Gew.-%, Ciprofloxacin HCl, reference compound]
P.aeruginosa [1]; 2 h after inoculation
  Ergebnis der Reisolierung qualitiativ (+/-) nach Anreicherung: -
P.aeruginosa [1]; 4 h after inoculation
  Ergebnis der Reisolierung qualitiativ (+/-) nach Anreicherung: -
P.aeruginosa [1]; 6 h after inoculation
  Ergebnis der Reisolierung qualitiativ (+/-) nach Anreicherung: -
P.aeruginosa [1]; 8 h after inoculation
  Ergebnis der Reisolierung qualitiativ (+/-) nach Anreicherung: - -
P.aeruginosa [1]; 24 h after inoculation
  Ergebnis der Reisolierung qualitiativ (+/-) nach Anreicherung: -
P.aeruginosa [1]; 32 h after inoculation
  Ergebnis der Reisolierung qualitiativ (+/-) nach Anreicherung: -
P.aeruginosa [1]; 48 h after inoculation
  Ergebnis der Reisolierung qualitiativ (+/-) nach Anreicherung: -
P.aeruginosa [1]; 72 h after inoculation
  Ergebnis der Reisolierung qualitiativ (+/-) nach Anreicherung: -
P.aeruginosa [2]; 2 h after inoculation
  Ergebnis der Reisolierung (in KBE/ml): <100 KBE/ml
P.aeruginosa [2]; 4 h after inoculation
  Ergebnis der Reisolierung (in KBE/ml): <100 KBE/ml
P.aeruginosa [2]; 6 h after inoculation
  Ergebnis der Reisolierung (in KBE/ml): <100 KBE/ml
P.aeruginosa [2]; 8 h after inoculation
  Ergebnis der Reisolierung (in KBE/ml): <100 KBE/ml
P.aeruginosa [2]; 24 h after inoculation
  Ergebnis der Reisolierung (in KBE/ml): <100 KBE/ml
P.aeruginosa [2]; 32 h after inoculation
  Ergebnis der Reisolierung (in KBE/ml): <100 KBE/ml
P.aeruginosa [2]; 48 h after inoculation
  Ergebnis der Reisolierung (in KBE/ml): <100 KBE/ml
P.aeruginosa [2]; 72 h after inoculation
  Ergebnis der Reisolierung (in KBE/ml): <100 KBE/ml
S.epidermidis [3]; 2 h after inoculation
  Ergebnis der Reisolierung (in KBE/ml): <100 KBE/ml
S.epidermidis [3]; 4 h after inoculation
  Ergebnis der Reisolierung (in KBE/ml): <100 KBE/ml
S.epidermidis [3]; 6 h after inoculation
  Ergebnis der Reisolierung (in KBE/ml): <100 KBE/ml
S.epidermidis [3]; 8 h after inoculation
  Ergebnis der Reisolierung (in KBE/ml): <100 KBE/ml
S.epidermidis [3]; 24 h after inoculation
  Ergebnis der Reisolierung (in KBE/ml): <100 KBE/ml
S.epidermidis [3]; 32 h after inoculation
  Ergebnis der Reisolierung (in KBE/ml): <100 KBE/ml
S.epidermidis [3]; 48 h after inoculation
  Ergebnis der Reisolierung (in KBE/ml): <100 KBE/ml
S.epidermidis [3]; 72 h after inoculation
  Ergebnis der Reisolierung (in KBE/ml): <100 KBE/ml
E.coli [4]; 2 h after inoculation
  Ergebnis der Reisolierung (in KBE/ml): <100 KBE/ml
E.coli [4]; 4 h after inoculation
  Ergebnis der Reisolierung (in KBE/ml): <100 KBE/ml
E.coli [4]; 6 h after inoculation
  Ergebnis der Reisolierung (in KBE/ml): <100 KBE/ml
E.coli [4]; 8 h after inoculation
  Ergebnis der Reisolierung (in KBE/ml): <100 KBE/ml
E.coli [4]; 24 h after inoculation
  Ergebnis der Reisolierung (in KBE/ml): <100 KBE/ml
E.coli [4]; 32 h after inoculation
  Ergebnis der Reisolierung (in KBE/ml): <100 KBE/ml
E.coli [4]; 48 h after inoculation
  Ergebnis der Reisolierung (in KBE/ml): <100 KBE/ml
E.coli [4]; 72 h after inoculation
  Ergebnis der Reisolierung (in KBE/ml): <100 KBE/ml
H.influenzae; 2 h after inoculation
  Ergebnis der Reisolierung (in KBE/ml): <100 KBE/ml
H.influenzae; 4 h after inoculation
  Ergebnis der Reisolierung (in KBE/ml): <100 KBE/ml
H.influenzae; 6 h after inoculation
  Ergebnis der Reisolierung (in KBE/ml): <100 KBE/ml
H.influenzae; 8 h after inoculation
  Ergebnis der Reisolierung (in KBE/ml): <100 KBE/ml
H.influenzae; 24 h after inoculation
  Ergebnis der Reisolierung (in KBE/ml): <100 KBE/ml
H.influenzae; 32 h after inoculation
  Ergebnis der Reisolierung (in KBE/ml): <100 KBE/ml
H.influenzae; 48 h after inoculation
  Ergebnis der Reisolierung (in KBE/ml): <100 KBE/ml
H.influenzae; 72 h after inoculation
  Ergebnis der Reisolierung (in KBE/ml): <100 KBE/ml
S.aureus [5]; 2 h after inoculation
  Ergebnis der Reisolierung (in KBE/ml): <100 KBE/ml
S.aureus [5]; 4 h after inoculation
  Ergebnis der Reisolierung (in KBE/ml): <100 KBE/ml
S.aureus [5]; 6 h after inoculation
  Ergebnis der Reisolierung (in KBE/ml): <100 KBE/ml
S.aureus [5]; 24 h after inoculation
  Ergebnis der Reisolierung (in KBE/ml): <100 KBE/ml
S.aureus [5]; 32 h after inoculation
  Ergebnis der Reisolierung (in KBE/ml): <100 KBE/ml
S.aureus [5]; 48 h after inoculation
  Ergebnis der Reisolierung (in KBE/ml): <100 KBE/ml
S.aureus [5]; 72 h after inoculation
  Ergebnis der Reisolierung (in KBE/ml): <100 KBE/ml
Sc. pneumoniae [6]; 2 h after inoculation
  Ergebnis der Reisolierung (in KBE/ml): <100 KBE/ml
Sc. pneumoniae [6]; 4 h after inoculation
  Ergebnis der Reisolierung (in KBE/ml): <100 KBE/ml
Sc. pneumoniae [6]; 6 h after inoculation
  Ergebnis der Reisolierung (in KBE/ml): <100 KBE/ml
Sc. pneumoniae [6]; 8 h after inoculation
  Ergebnis der Reisolierung (in KBE/ml): <100 KBE/ml
Sc. pneumoniae [6]; 24 h after inoculation
  Ergebnis der Reisolierung (in KBE/ml): <100 KBE/ml
Sc. pneumoniae [6]; 32 h after inoculation
  Ergebnis der Reisolierung (in KBE/ml): <100 KBE/ml
Sc. pneumoniae [6]; 48 h after inoculation
  Ergebnis der Reisolierung (in KBE/ml): <100 KBE/ml
Sc. pneumoniae [6]; 72 h after inoculation
  Ergebnis der Reisolierung (in KBE/ml): <100 KBE/ml
E.coli [7]; 2 h after inoculation
  Ergebnis der Reisolierung qualitiativ (+/-) nach Anreicherung: -
E.coli [7]; 4 h after inoculation
  Ergebnis der Reisolierung qualitiativ (+/-) nach Anreicherung: -
E.coli [7]; 6 h after inoculation
  Ergebnis der Reisolierung qualitiativ (+/-) nach Anreicherung: -
E.coli [7]; 8 h after inoculation
  Ergebnis der Reisolierung qualitiativ (+/-) nach Anreicherung: -
E.coli [7]; 24 h after inoculation
  Ergebnis der Reisolierung qualitiativ (+/-) nach Anreicherung: -
E.coli [7]; 32 h after inoculation
  Ergebnis der Reisolierung qualitiativ (+/-) nach Anreicherung: -
E.coli [7]; 48 h after inoculation
  Ergebnis der Reisolierung qualitiativ (+/-) nach Anreicherung: -
E.coli [7]; 72 h after inoculation
  Ergebnis der Reisolierung qualitiativ (+/-) nach Anreicherung: -
S.epidermidis [8]; 2 h after inoculation
  Ergebnis der Reisolierung qualitiativ (+/-) nach Anreicherung: +
S.epidermidis [8]; 4 h after inoculation
  Ergebnis der Reisolierung qualitiativ (+/-) nach Anreicherung: +
S.epidermidis [8]; 6 h after inoculation
  Ergebnis der Reisolierung qualitiativ (+/-) nach Anreicherung: +
S.epidermidis [8]; 8 h after inoculation
  Ergebnis der Reisolierung qualitiativ (+/-) nach Anreicherung: -
S.epidermidis [8]; 24 h after inoculation
  Ergebnis der Reisolierung qualitiativ (+/-) nach Anreicherung: -
S.epidermidis [8]; 32 h after inoculation
  Ergebnis der Reisolierung qualitiativ (+/-) nach Anreicherung: -
S.epidermidis [8]; 48 h after inoculation
  Ergebnis der Reisolierung qualitiativ (+/-) nach Anreicherung: -
S.epidermidis [8]; 72 h after inoculation
  Ergebnis der Reisolierung qualitiativ (+/-) nach Anreicherung: -
S.aureus [9]; 2 h after inoculation
  Ergebnis der Reisolierung qualitiativ (+/-) nach Anreicherung: +
S.aureus [9]; 4 h after inoculation
  Ergebnis der Reisolierung qualitiativ (+/-) nach Anreicherung: +
S.aureus [9]; 6 h after inoculation
  Ergebnis der Reisolierung qualitiativ (+/-) nach Anreicherung: +
S.aureus [9]; 8 h after inoculation
  Ergebnis der Reisolierung qualitiativ (+/-) nach Anreicherung: +
S.aureus [9]; 24 h after inoculation
  Ergebnis der Reisolierung qualitiativ (+/-) nach Anreicherung: -
S.aureus [9]; 32 h after inoculation
  Ergebnis der Reisolierung qualitiativ (+/-) nach Anreicherung: -
S.aureus [9]; 48 h after inoculation
  Ergebnis der Reisolierung qualitiativ (+/-) nach Anreicherung: -
S.aureus [9]; 72 h after inoculation
  Ergebnis der Reisolierung qualitiativ (+/-) nach Anreicherung: -
Sc. pneumoniae [10]; 2 h after inoculation
  Ergebnis der Reisolierung qualitiativ (+/-) nach Anreicherung: -
Sc. pneumoniae [10]; 4 h after inoculation
  Ergebnis der Reisolierung qualitiativ (+/-) nach Anreicherung: -
Sc. pneumoniae [10]; 6 h after inoculation
  Ergebnis der Reisolierung qualitiativ (+/-) nach Anreicherung: -
Sc. pneumoniae [10]; 8 h after inoculation
  Ergebnis der Reisolierung qualitiativ (+/-) nach Anreicherung: -
Sc. pneumoniae [10]; 24 h after inoculation
  Ergebnis der Reisolierung qualitiativ (+/-) nach Anreicherung: -
Sc. pneumoniae [10]; 32 h after inoculation
  Ergebnis der Reisolierung qualitiativ (+/-) nach Anreicherung: -
Sc. pneumoniae [10]; 48 h after inoculation
  Ergebnis der Reisolierung qualitiativ (+/-) nach Anreicherung: -
Sc. pneumoniae [10]; 72 h after inoculation
  Ergebnis der Reisolierung qualitiativ (+/-) nach Anreicherung: -
